Assay [1] has as its target T1, BRD4 (Homo sapiens, UniProt O60885). Description: Summary of BRD4 degradation by CURE-PRO pairs, estimated from Western Blot or WES. The assay is classed as cell-based. Further details: endogenous in cells. As to conditions: for Degradation of BRD4, combination with CRBN ligand 8048: Table 4, aromatic 1,2-diol BRD4 ligand + 8048. As to the method: (§1) Namalwa, Ramosm HeLa, MCF7, or HT29 HCT116 cells (2.5-3×10^6) were treated for 24 hours with the indicated compounds solubilized in DMSO. The cells were washed in ice-cold PBS and were then lysed in RIPA lysis buffer (150 mM NaCl, 5 mM EDTA, 1% NP-40, 0.5% sodium deoxycholate, 0.1% SDS, 50 mM Tris, pH 8.0.) with Roche protease inhibitor complete cocktail and phosphatase inhibitors (10 mM sodium fluoride, 10 mM sodium pyrophosphate, 1 mM sodium orthovanadate and 20 mM β-glycerophosphate). The total protein concentrations were determined by Bradford Protein Assay (Pierce) and 10-20 μg of protein was loaded onto 4-15% Tris-Glycine gradient gels (Biorad). After standard gel electrophoresis, the separated proteins were transferred to PVDF membrane by wet transfer. The immunoblots were then blocked for 1 hour in 5% skim milk in TBST or 5% BSA in TBST, according to manufacturer's instructions, before an overnight incubation at 4° C. with indicated antibodies and membranes. Membranes were then incubated with the appropriate horseradish peroxidase-conjugated secondary antibodies (1:5,000 dilution) for 1 h at room temperature and the bands were visualized using the Clarity Max Western ECL Substrate (Biorad) and the ChemiDoc Imaging System (Biorad). Signal was detected with ECL Western Blotting Substrate (Pierce) and X-ray film processed with a Konica SRX-101 X-ray film processor or captured by Bio-Rad's Chemidoc Imaging system.
WES Simple analysis was performed on WES system (ProteinSimple-Biotechne) according to the manufacturer's instructions. Total protein concentrations of cell lysates were determined by the Pierce BCA kit (Thermo Fisher). 3 μL of 0.3 μg/μL of the protein lysate was loaded onto a 12- to 230-kDa WES assay plate (ProteinSimple) where 300 nL sample was withdrawn through a capillary, subjected to electrophoretic separation of proteins by size, and followed by the simultaneous, HRP-based detection of proteins using the Anti-Rabbit Detection Module (Proteinsimple: #DM-001). The electropherograms were checked then the automatic peak detection was manually corrected if it was required.
A black check mark indicates efficacy of 30% to 70% or higher protein degradation.

Assay [2] has as its target T1, BRD4. Nature of the assay: CURE-PRO-mediated BRD4 degradation in HeLa cells, Western blot. As to conditions: 24 h. The assay is classed as cell-based. Further details: endogenous in cells; host or cells: HeLa. As to the method: All cell lines were purchased from ATCC or DSMZ and grown at 37° C. with 5% CO2. Human HeLa cells were cultured in complete growth medium (Dulbecco's modified Eagle's medium (DMEM) supplemented with 10% FBS); MCF7 cells were cultured in complete growth medium (Dulbecco's modified Eagle's medium (DMEM) supplemented with 10% FBS and 0.01 mg/ml human recombinant insulin (Sigma Aldrich); Namalwa and Ramos cells were cultured in complete growth medium (RPMI 1640 medium supplemented with 10% FBS); HCT116 and HT29 cells were cultured in complete growth medium (McCoy's 5a Medium supplemented with 10% FBS). For cellular degradation of BRD4 studies cells were seeded in a 12-well plate at 70-80% confluency, allowed to attach overnight, and incubated with the indicated compounds for the indicated time. When indicated, a 15-minute pretreatment with 10 μM pomalidomide, 10 μM VHL298, 10 μM Nutlin3a, 1 μM MG-132 or 1 μM Carfilzomib was performed before the addition of CURE-PROs. For washout studies, after CURE-PRO treatment, media was aspirated and incubated with complete medium for the indicated time before lysis.
as §1
HeLa cells (2.5×10^6) were treated for 24 hours with the sample compounds solubilized in DMSO. Compounds were added at 1-10 μM each. Standardized protein samples were electrophoresed and imaged as described in the immunoblotting description above. FIGS. 6-18 depicts the CURE-PRO-mediated BRD4 degradation for BRD monomers (JQ1 derivatives comprising of catechol linkers), and CRBN ligands, 8048 and 8049 (pomalidomide derivatives comprising boronic acid linkers) combined in a 1:1 ratio.
HeLa cells (2.5×10^6) were treated for 24 hours with the compounds solubilized in DMSO. The compounds were added at 10 μM each. Standardized protein samples were electrophoresed and imaged as described in the immunoblotting section above. FIGS. 23-27 depicts the CURE-PRO-mediated BRD4 degradation for BRD monomers (JQ1 derivatives comprising of boronic acid linkers), and CRBN ligands, 8046, 8047 and 8066 (pomalidomide derivatives comprising diol linkers) combined in a 1:1 ratio.
HeLa cells (2.5×10^6) were treated for 24 hours with the compounds solubilized in DMSO. Compounds were added at 10 μM and 100 μM each. Standardized protein samples were electrophoresed and imaged as described in the immunoblotting section above.
HeLa cells (2.5×10^6) were treated for 24 hours with the compounds solubilized in DMSO. Compounds were added at 1 nM-1 μM each. […]
Background: In western blotting, separated proteins are transferred to a membrane and probed.

[3] abbreviates: BRD4 monomer alone, HeLa, 1-10 μM.
[4] abbreviates: co-treated 1:1 with CRBN ligand 8048, HeLa, 1-10 μM each.
The mark [5] stands for this setting: co-treated 1:1 with CRBN ligand 8049, HeLa, 1-10 μM each.

“Also recorded” adds a separate entry of the source.

For `COc1ccc2c(c1)C(c1ccc(Cl)cc1)=N[C@@H](CC(=O)Nc1ccc(B(O)O)cc1)c1nnc(C)n1-2` [BRD-E74, (4-(2-((4S)-6-(4-chlorophenyl)-8-methoxy-1-methyl-4H-benzo[f][1,2,4]triazolo[4,3-a][1,4]diazepin-4-yl)acetamido)phenyl)boronic acid], at BRD4 [1] (Table 1, aryl-boronic acid BRD4 ligand + 8046), the “Degradation of BRD4, combination with CRBN ligand 8046” value is “√ (A black check mark indicates efficacy of 30% to 70% or higher protein degradation)”. On BRD4 [1] (Table 2, aryl-boronic acid BRD4 ligand + 8314), the “Degradation of BRD4, combination with MDM2 ligand 8314” value was “√ (A black check mark indicates efficacy of 30% to 70% or higher protein degradation)”. For the same compound, the BRD4 degradation entry on BRD4 [2] (co-treated 1:1 with CRBN ligand 8046, HeLa, 10 μM each) was “causes degradation of BRD4”; at BRD4 [2] (co-treated 1:1 with CRBN ligand 8047, HeLa, 10 μM each) it was “causes degradation of BRD4”.
As to `COc1ccc2c(c1)C(c1ccc(Cl)cc1)=N[C@@H](CC(=O)NCCNC(=O)c1ccc(O)c(O)c1)c1nnc(C)n1-2` [BRD-N1], at BRD4 [1], the “Degradation of BRD4, combination with CRBN ligand 8048” value (“Degradation … with CRBN ligand 8048” below) was “√ (A black check mark indicates efficacy of 30% to 70% or higher protein degradation)”. Besides, the BRD4 degradation result is given as “there is no degradation of BRD4” on BRD4 [2] (setting [3]) and “causes degradation of BRD4; also recorded: Degradation is noted” at BRD4 [2] (setting [4]).
In the case of `COc1ccc2c(c1)C(c1ccc(Cl)cc1)=N[C@@H](CC(=O)NCCCCNC(=O)c1ccc(O)c(O)c1)c1nnc(C)n1-2` [BRD-N5], the “Degradation … with CRBN ligand 8048” value on BRD4 [1] is “√ (A black check mark indicates efficacy of 30% to 70% or higher protein degradation)”. In addition, the values for the BRD4 degradation result at BRD4 [2] (setting [3]), on BRD4 [2] (setting [4]) and on BRD4 [2] (setting [5]) were “there is no degradation of BRD4”, “causes degradation of BRD4; also recorded: Degradation is noted” and “no evidence of BRD4 degradation”, respectively.
The like results for `COc1ccc2c(c1)C(c1ccc(Cl)cc1)=N[C@@H](CC(=O)NCCCCNC(=O)c1cccc(O)c1O)c1nnc(C)n1-2` [BRD-N6] were, in that order, “√ (A black check mark indicates efficacy of 30% to 70% or higher protein degradation)”, “there is no degradation of BRD4”, “causes degradation of BRD4; also recorded: Degradation is noted” and “no evidence of BRD4 degradation”.
As for `CCNC(=O)C[C@@H]1N=C(c2ccc(Cl)cc2)c2cc(OCCCCC(=O)Nc3ccc(O)c(O)c3)ccc2-n2c(C)nnc21` [BRD-N22, 5-(((4S)-6-(4-chlorophenyl)-4-(2-(ethylamino)-2-oxoethyl)-1-methyl-4H-benzo[f][1,2,4]triazolo[4,3-a][1,4]diazepin-8-yl)oxy)-N-(3,4-dihydroxyphenyl)pentanamide], at BRD4 [1], the “Degradation … with CRBN ligand 8048” value is on record as “√ (A black check mark indicates efficacy of 30% to 70% or higher protein degradation)”. For the same compound, the results for the BRD4 degradation entry on BRD4 [2] (setting [3]), at BRD4 [2] (setting [4]) and on BRD4 [2] (setting [5]) were “there is no degradation of BRD4”, “causes degradation of BRD4; also recorded: Degradation is noted” and “no evidence of BRD4 degradation”, respectively.
On to `COc1ccc2c(c1)C(c1ccc(Cl)cc1)=N[C@@H](CC(=O)NCCNC(=O)Cc1ccc(O)c(O)c1)c1nnc(C)n1-2` [BRD-N30], for which, on BRD4 [1], the “Degradation … with CRBN ligand 8048” value is listed as “√ (A black check mark indicates efficacy of 30% to 70% or higher protein degradation)”. In addition, the BRD4 degradation result on BRD4 [2] (setting [3]) was “there is no degradation of BRD4”; at BRD4 [2] (setting [4]) it was “causes degradation of BRD4”.
The like results for `CCNC(=O)C[C@@H]1N=C(c2ccc(Cl)cc2)c2cc(OCCOCCNC(=O)c3ccc(O)c(O)c3)ccc2-n2c(C)nnc21` [BRD-N38, N-(2-(2-(((4S)-6-(4-chlorophenyl)-4-(2-(ethylamino)-2-oxoethyl)-1-methyl-4H-benzo[f][1,2,4]triazolo[4,3-a][1,4]diazepin-8-yl)oxy)ethoxy)ethyl)-3,4-dihydroxybenzamide] were, in that order, “√ (A black check mark indicates efficacy of 30% to 70% or higher protein degradation)”, “there is no degradation of BRD4” and “causes degradation of BRD4”.
For the compound `COc1ccc2c(c1)C(c1ccc(Cl)cc1)=N[C@@H](CC(=O)NCCOCCOCCOCCNC(=O)c1ccc(O)c(O)c1)c1nnc(C)n1-2` [BRD-N44], the “Degradation … with CRBN ligand 8048” value at BRD4 [1] was “√ (A black check mark indicates efficacy of 30% to 70% or higher protein degradation)”. Further, the BRD4 degradation entry at BRD4 [2] (setting [3]) is given as “there is no degradation of BRD4”; on BRD4 [2] (setting [4]), “causes degradation of BRD4”.
Turning to `CCNC(=O)C[C@@H]1N=C(c2ccc(Cl)cc2)c2cc(-c3ccc4cc(O)c(O)cc4c3)ccc2-n2c(C)nnc21` [BRD-N67], at BRD4 [1], the “Degradation … with CRBN ligand 8048” value is “√ (A black check mark indicates efficacy of 30% to 70% or higher protein degradation)”. Also, the “Degradation of BRD4, combination with CRBN ligand 8049” value at BRD4 [1] (Table 4, aromatic 1,2-diol BRD4 ligand + 8049) is listed as “√ (A black check mark indicates efficacy of 30% to 70% or higher protein degradation)”. For the same compound, the BRD4 degradation entry at BRD4 [2] (setting [3]) is “there is no degradation of BRD4”; at BRD4 [2] (setting [4]), “causes degradation of BRD4”; at BRD4 [2] (setting [5]), “causes degradation of BRD4”.
Consider `COc1ccc2c(c1)C(c1ccc(Cl)cc1)=N[C@@H](CC(=O)NCCOCCOCCOCCOCCNC(=O)c1ccc(O)c(O)c1)c1nnc(C)n1-2` [BRD-N69], for which the “Degradation … with CRBN ligand 8048” value at BRD4 [1] is “√ (A black check mark indicates efficacy of 30% to 70% or higher protein degradation)”. Further, the BRD4 degradation result on BRD4 [2] (setting [3]) was “there is no degradation of BRD4”; on BRD4 [2] (setting [4]), “causes degradation of BRD4; also recorded: Degradation is noted”; at BRD4 [2] (setting [5]) it was “no evidence of BRD4 degradation”.
Take `CCNC(=O)C[C@@H]1N=C(c2ccc(Cl)cc2)c2cc(OCCOCCOCCOCCOCCOCCNC(=O)c3ccc(O)c(O)c3)ccc2-n2c(C)nnc21` [BRD-N70, N-(17-(((4S)-6-(4-chlorophenyl)-4-(2-(ethylamino)-2-oxoethyl)-1-methyl-4H-benzo[f][1,2,4]triazolo[4,3-a][1,4]diazepin-8-yl)oxy)-3,6,9,12,15-pentaoxaheptadecyl)-3,4-dihydroxybenzamide]: the “Degradation … with CRBN ligand 8048” value on BRD4 [1] is given as “√ (A black check mark indicates efficacy of 30% to 70% or higher protein degradation)”. For the same compound, the BRD4 degradation result on BRD4 [2] (setting [4]) is on record as “causes degradation of BRD4; also recorded: Degradation is noted”; on BRD4 [2] (setting [5]), “no evidence of BRD4 degradation”.
